Source: US6737383B1, “Herbicidal oxadiazolidines” (priority 1999, dated 2004)

How the values were obtained:
velvetleaf = assay: Test B pre/postemergence velvetleaf; type: in vivo, Abutilon theophrasti; conditions: for Plant response rating, Velvetleaf: scale of 0 to 10 where 0 is no effect and 10 is complete control
Outline: (§1)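 Herbicidal effect was estimated by eye on a ten-point control scale after plants spent twelve to sixteen days in a greenhouse following soil or foliar treatment. Foliar sprays targeted plants at one to four leaves; all doses were formulated in a non-phytotoxic solvent with surfactant.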

duck salad = assay: Test B flood test duck salad; type: in vivo, Heteranthera limosa
Outline: (§2)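 Flood test on plants grown to the 2-leaf stage; treated plants kept in greenhouse twelve to sixteen days, then visually rated against controls on a 0 (no effect) to 10 (complete control) scale.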

giant foxtail = assay: Test B pre/postemergence giant foxtail; type: in vivo, Setaria faberii
Outline: as §1

crabgrass = assay: Test B pre/postemergence crabgrass; type: in vivo, Digitaria sanguinalis
Outline: as §1

bamyardgrass = assay: Test B flood test barnyardgrass; type: in vivo, Echinochloa crus-galli
Outline: as §2

surinam grass = assay: Test B pre/postemergence surinam grass; type: in vivo, Brachiaria decumbens
Outline: as §1

blackgrass = assay: Test B pre/postemergence blackgrass; type: in vivo, Alopecurus myosuroides
Outline: as §1

cocklebur = assay: Test B pre/postemergence cocklebur; type: in vivo, Xanthium strumarium
Outline: as §1

morningglory = assay: Test B pre/postemergence morningglory; type: in vivo, Ipomoea hederacea; conditions: for Plant response rating, Morningglory: scale of 0 to 10 where 0 is no effect and 10 is complete control
Outline: as §1

rice = assay: Test B flood test rice; type: in vivo, Oryza sativa
Outline: as §2

purple nutsedge = assay: Test B pre/postemergence purple nutsedge; type: in vivo, Cyperus rotundus; conditions: for Plant response rating, Nutsedge: scale of 0 to 10 where 0 is no effect and 10 is complete control
Outline: as §1

pigweed = assay: Test B pre/postemergence pigweed; type: in vivo, Amaranthus retroflexus; conditions: for Plant response rating, Redroot pigweed: scale of 0 to 10 where 0 is no effect and 10 is complete control
Outline: as §1

wild oat = assay: Test B pre/postemergence wild oat; type: in vivo, Avena fatua; conditions: for Plant response rating, Wild oats: scale of 0 to 10 where 0 is no effect and 10 is complete control
Outline: as §1

sugar beet = assay: Test B pre/postemergence sugar beet; type: in vivo, Beta vulgaris; conditions: for Plant response rating, Sugarbeets: scale of 0 to 10 where 0 is no effect and 10 is complete control
Outline: as §1

wheat = assay: Test B pre/postemergence wheat; type: in vivo, Triticum aestivum; conditions: for Plant response rating, Wheat: scale of 0 to 10 where 0 is no effect and 10 is complete control
Outline: as §1

[1] = Postemergence, Rate 250 g/ha, scale 0 to 10
[2] = Preemergence, Rate 250 g/ha, scale 0 to 10, 0 is no effect, 10 is complete control
[3] = Preemergence, Rate 500 g/ha, scale 0 to 10, 0 is no effect, 10 is complete control
[4] = Rate 62 g/ha, Postemergence, scale 0 to 10 (0 no effect, 10 complete control)
[5] = Rate 125 g/ha, Postemergence, scale 0 to 10, 0 is no effect, 10 is complete control
[6] = Rate 62 g/ha, flood test species, Pre-emergence, visual evaluation after twelve to sixteen days
[7] = Rate 125 g/ha, under heading Pre-emergence, flood test species, visual evaluation after twelve to sixteen days
[8] = Rate 250 g/ha, Pre-emergence (flood test species), scale 0 to 10, 0 is no effect, 10 is complete control
[9] = Rate 500 g/ha, Pre-emergence, flood test species, scale 0 to 10 (0 no effect, 10 complete control)
[10] = Postemergence, Rate 500 g/ha, scale of 0 to 10 where 0 is no effect and 10 is complete control
[11] = Preemergence, Rate 62 g/ha, scale of 0 to 10 where 0 is no effect and 10 is complete control
[12] = Preemergence, Rate 125 g/ha, scale of 0 to 10 where 0 is no effect and 10 is complete control

COC(OC)C(C)n1c(=O)on(C(=O)N(c2ccc(F)cc2)C(C)C)c1=O (stereo not shown) [Compound 471]
4: B. signalgrass plant response rating (surinam grass; Postemergence, Rate 250 g/ha, scale 0 to 10, 0 no effect, 10 complete control) | Morningglory plant response rating (morningglory; [1]) | Plant response rating, Wild oats (wild oat; Preemergence, Rate 125 g/ha) | Sugarbeets plant response rating (sugar beet; [3])
7: Giant foxtail plant response rating (giant foxtail; [1]) | Blackgrass plant response rating (blackgrass; [10]) | Wild oats plant response rating (wild oat; [2]) | Wild oats plant response rating (wild oat; [3])
1: Giant foxtail plant response rating (giant foxtail; [5]) | Crabgrass plant response rating (crabgrass; [4])
9: Crabgrass plant response rating (crabgrass; [10]) | Plant response rating, Crabgrass (crabgrass; [11]) | Plant response rating, B. signalgrass (surinam grass; [12]) | Plant response rating, Blackgrass (blackgrass; [11])
10: Plant response rating, Giant foxtail (giant foxtail; [11]) | Plant response rating, Giant foxtail (giant foxtail; [12]) | Giant foxtail plant response rating (giant foxtail; [2]) | Giant foxtail plant response rating (giant foxtail; [3]) | Plant response rating, Crabgrass (crabgrass; [12]) | Crabgrass plant response rating (crabgrass; [2]) | Crabgrass plant response rating (crabgrass; [3]) | B. signalgrass plant response rating (surinam grass; [2]) | B. signalgrass plant response rating (surinam grass; [3]) | Plant response rating, Blackgrass (blackgrass; [12]) | Blackgrass plant response rating (blackgrass; [2]) | Blackgrass plant response rating (blackgrass; [3]) | Plant response rating, Redroot pigweed (pigweed; Preemergence, Rate 62 g/ha) | Plant response rating, Redroot pigweed (pigweed; Preemergence, Rate 125 g/ha) | Redroot pigweed plant response rating (pigweed; [2]) | Redroot pigweed plant response rating (pigweed; [3])
6: Velvetleaf plant response rating (velvetleaf; [3]) | B. signalgrass plant response rating (surinam grass; [10]) | Plant response rating, B. signalgrass (surinam grass; [11])
2: Velvetleaf plant response rating (velvetleaf; [1]) | Plant response rating, Velvetleaf (velvetleaf; Preemergence, Rate 62 g/ha) | Velvetleaf plant response rating (velvetleaf; [5]) | Blackgrass plant response rating (blackgrass; [5]) | Redroot pigweed plant response rating (pigweed; [1]) | Plant response rating, Wild oats (wild oat; Preemergence, Rate 62 g/ha) | Plant response rating, Sugarbeets (sugar beet; Preemergence, Rate 125 g/ha) | Sugarbeets plant response rating (sugar beet; [2])
0: Velvetleaf plant response rating (velvetleaf; [4]) | Plant response rating, Ducksalad (0 to 10 scale, 0 is no effect, 10 is complete control) (duck salad; [6]) | Ducksalad plant response rating (0 to 10 scale, 0 is no effect, 10 is complete control) (duck salad; [7]) | Ducksalad plant response rating (duck salad; [8]) | Ducksalad plant response rating (duck salad; [9]) | Giant foxtail plant response rating (giant foxtail; [4]) | Plant response rating, Barnyardgrass (0 to 10 scale, 0 is no effect, 10 is complete control) (bamyardgrass; [6]) | Barnyardgrass plant response rating (0 to 10 scale, 0 is no effect, 10 is complete control) (bamyardgrass; [7]) | Barnyardgrass plant response rating (bamyardgrass; [8]) | Barnyardgrass plant response rating (bamyardgrass; [9]) | B. signalgrass plant response rating (surinam grass; [4]) | B. signalgrass plant response rating (surinam grass; [5]) | Blackgrass plant response rating (blackgrass; [4]) | Cocklebur plant response rating (cocklebur; [1]) | Cocklebur plant response rating (cocklebur; [10]) | Plant response rating, Cocklebur (cocklebur; [11]) | Cocklebur plant response rating (cocklebur; [2]) | Cocklebur plant response rating (cocklebur; [3]) | Cocklebur plant response rating (cocklebur; [4]) | Cocklebur plant response rating (cocklebur; [5]) | Plant response rating, Morningglory (morningglory; Preemergence, Rate 62 g/ha) | Plant response rating, Morningglory (morningglory; Preemergence, Rate 125 g/ha) | Morningglory plant response rating (morningglory; [2]) | Morningglory plant response rating (morningglory; [3]) | Plant response rating, Rice (0 to 10 scale, 0 is no effect, 10 is complete control) (rice; [6]) | Rice plant response rating (0 to 10 scale, 0 is no effect, 10 is complete control) (rice; [7]) | Rice plant response rating (rice; [8]) | Rice plant response rating (rice; [9]) | Nutsedge plant response rating (purple nutsedge; [1]) | Plant response rating, Nutsedge (purple nutsedge; Preemergence, Rate 62 g/ha) | Plant response rating, Nutsedge (purple nutsedge; Preemergence, Rate 125 g/ha) | Nutsedge plant response rating (purple nutsedge; [2]) | Nutsedge plant response rating (purple nutsedge; [3]) | Nutsedge plant response rating (purple nutsedge; [4]) | Nutsedge plant response rating (purple nutsedge; [5]) | Redroot pigweed plant response rating (pigweed; [4]) | Redroot pigweed plant response rating (pigweed; [5]) | Wild oats plant response rating (wild oat; [1]) | Wild oats plant response rating (wild oat; [4]) | Wild oats plant response rating (wild oat; [5]) | Sugarbeets plant response rating (sugar beet; [1]) | Plant response rating, Sugarbeets (sugar beet; Preemergence, Rate 62 g/ha) | Sugarbeets plant response rating (sugar beet; [4]) | Sugarbeets plant response rating (sugar beet; [5]) | Wheat plant response rating (wheat; [1]) | Plant response rating, Wheat (wheat; Preemergence, Rate 62 g/ha) | Plant response rating, Wheat (wheat; Preemergence, Rate 125 g/ha) | Wheat plant response rating (wheat; [2]) | Wheat plant response rating (wheat; [3]) | Wheat plant response rating (wheat; [4]) | Wheat plant response rating (wheat; [5])
3: Plant response rating, Velvetleaf (velvetleaf; Preemergence, Rate 125 g/ha) | Velvetleaf plant response rating (velvetleaf; [2]) | Crabgrass plant response rating (crabgrass; [5]) | Blackgrass plant response rating (blackgrass; [1]) | Morningglory plant response rating (morningglory; [4]) | Morningglory plant response rating (morningglory; [5])
8: Giant foxtail plant response rating (giant foxtail; [10]) | Crabgrass plant response rating (crabgrass; [1])
